# Measured values reported in patent US20230135093A1, “TRIAZOLYL DERIVATIVES AS GABA A ALPHA5 PAM” (Hoffmann-La Roche Inc., priority 2020, published 2023).
# pKi: −log10 of the molar value.
# Tests used:
# h-GABA-A α5β3γ2 [1] = biological target: T1, h-GABA-A α5β3γ2 (Homo sapiens, UniProt P18507+P31644); assay: [3H]flumazenil competition binding assay on membranes of HEK293 cells expressing GABAA receptors; conditions: Table 1; displacement of [3H]-Flumazenil (0.5 nM), HEK293 cells expressing human receptors, means of two determinations
# T1 construct: expressed in transfected cells; host or cells: Xenopus laevis oocytes, micro-injected with subunit RNA
# Procedure, shortened: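 Competition for [3H]flumazenil (0.5 nM for α5 subunits) was measured at equilibrium (1 h, 4 °C, Krebs-tris buffer pH 7.5) on transiently transfected HEK293 membranes bearing human α5β3γ2 receptors, with 10^−5 M diazepam defining nonspecific binding. Ki values were derived from filtration and scintillation counting, averaged over duplicates.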
# h-GABA-A α5β3γ2 [2] = biological target: T1, h-GABA-A α5β3γ2; assay: Two-electrode voltage clamp electrophysiology in Xenopus oocytes expressing GABAA receptors (modulation of GABA EC20 current); format: cell-based; conditions: Table 1; for Efficacy (GABA) %: % modulation of GABA EC20 = 100*(Fold increase-1); for Fold increase h-GABA-A α5β3γ2 oocyte: Xenopus oocytes, GABA EC20, test compound at approximatively 30 fold its Ki
# Procedure, shortened: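 GABA EC20 currents in human α5β3γ2-expressing Xenopus oocytes, voltage-clamped at −80 mV (room temperature, pH 7.4), measured with and without compound at ~30× Ki applied 0.5 min into the second GABA pulse. % modulation = 100×(fold increase−1), taken from the extremum of the current ratio trace; at least 3 oocytes per concentration.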
SMILES,pKi (h-GABA-A α5β3γ2 [1]),Efficacy (GABA) % (h-GABA-A α5β3γ2 [2]),Fold increase h-GABA-A α5β3γ2 oocyte (h-GABA-A α5β3γ2 [2])
"CCn1nnc(-c2ccc(Cl)cc2F)c1Cn1ncc(-c2cccc(C#N)n2)cc1=O [Example 111, 6-(1-((4-(4-chloro-2-fluorophenyl)-1-ethyl-1H-1,2,3-triazol-5-yl)methyl)-6-oxo-1,6-dihydropyridazin-4-yl)picolinonitrile]",7.62,290%,3.9
"CC(C)N1CCN(c2cnn(Cc3c(-c4ccc(Cl)cc4F)nnn3C)c(=O)c2)C[C@@H]1C [Example 44, 2-((5-(4-chloro-2-fluoro-phenyl)-3-methyl-triazol-4-yl)methyl)-5-((3S)-4-isopropyl-3-methyl-piperazin-1-yl)pyridazin-3-one]",8.36,82%,1.82
"Cn1nnc(-c2ccc(C(F)(F)F)cc2F)c1Cn1ncc(N2CC(Oc3cccnn3)C2)cc1=O [Example 83, 2-[[5-[2-fluoro-4-(trifluoromethyl)phenyl]-3-methyl-triazol-4-yl]methyl]-5-(3-pyridazin-3-yloxyazetidin-1-yl)pyridazin-3-one]",7.83,108%,2.08
"Cn1nnc(-c2ccc(Cl)cc2)c1Cn1ncc(N2CC(OCC(F)(F)F)C2)cc1=O [Example 59, 2-[[5-(4-chlorophenyl)-3-methyl-triazol-4-yl]methyl]-5-[3-(2,2,2-trifluoro-ethoxy)azetidin-1-yl]pyridazin-3-one]",7.43,81%,1.81
"Cn1nnc(-c2ccc(Cl)cc2F)c1Cn1ncc(N2CC(Oc3ccc(Cl)cn3)C2)cc1=O [Example 80, 2-[[5-(4-chloro-2-fluoro-phenyl)-3-methyl-triazol-4-yl]methyl]-5-[3-[(5-chloro-2-pyridyl)oxy]azetidin-1-yl]pyridazin-3-one]",7.77,72%,1.72
"COc1cc(-c2cnn(Cc3c(-c4ccc(Cl)cc4F)nnn3C)c(=O)c2)ccn1 [Example 63, 2-((5-(4-chloro-2-fluoro-phenyl)-3-methyl-triazol-4-yl)methyl)-5-(2-methoxy-4-pyridyl)pyridazin-3-one]",8.66,42%,1.42
"C[C@@H]1CN(c2cnn(Cc3c(-c4ccc(Cl)nc4)nnn3C)c(=O)c2)C[C@H](C)O1 [Example 112, 2-[[5-(6-chloro-3-pyridyl)-3-methyl-triazol-4-yl]methyl]-5-[(2S,6R)-2,6-dimethylmorpholin-4-yl]pyridazin-3-one]",7.89,228%,3.28
"COc1ncc(-c2cnn(Cc3c(-c4ncc(C(F)(F)F)cn4)nnn3C)c(=O)c2)cc1Cl [Example 118, 5-(5-chloro-6-methoxypyridin-3-yl)-2-((1-methyl-4-(5-(trifluoromethyl)pyrimidin-2-yl)-1H-1,2,3-triazol-5-yl)methyl)pyridazin-3(2H)-one]",7.81,135%,2.35
"Cc1nnn(-c2ccc(Cl)cc2F)c1Cn1ncc(N(C)C)cc1=O [Example 5, 2-((3-(4-chloro-2-fluoro-phenyl)-5-methyl-triazol-4-yl)methyl)-5-(dimethylamino)pyridazin-3-one]",7.74,58%,1.58
"CCn1nnc(-c2ccc(Cl)cc2F)c1Cn1ncc(N2CC3(CC[C@H](F)CO3)C2)cc1=O [Example 124, (S)-2-((4-(4-chloro-2-fluorophenyl)-1-ethyl-1H-1,2,3-triazol-5-yl)methyl)-5-(7-fluoro-5-oxa-2-azaspiro[3.5]nonan-2-yl)pyridazin-3(2H)-one]",7.99,105%,2.05
"COc1ncccc1N1CCN(c2cnn(Cc3c(C)nnn3-c3ccc(Cl)cc3F)c(=O)c2)CC1 [Example 39, 2-[[3-(4-chloro-2-fluoro-phenyl)-5-methyl-triazol-4-yl]methyl]-5-[4-(2-methoxy-3-pyridyl)piperazin-1-yl]pyridazin-3-one]",7.94,108%,2.08
"Cc1ccc(-c2nnn(C)c2Cn2ncc(N3CCOC(C)(C)C3)cc2=O)cn1 [Example 11, 5-(2,2-dimethylmorpholin-4-yl)-2-[[3-methyl-5-(6-methyl-3-pyridyl)triazol-4-yl]methyl]pyridazin-3-one]",8.92,48%,1.48
"Cn1nnc(-c2ncc(C(F)(F)F)cn2)c1Cn1ncc(N2CC(OCC(F)F)C2)cc1=O [Example 119, 5-[3-(2,2-difluoro-ethoxy)azetidin-1-yl]-2-[[3-methyl-5-[5-(trifluoromethyl)pyrimidin-2-yl]triazol-4-yl]methyl]pyridazin-3-one]",7.53,86%,1.86
"Cn1nnc(-c2ccc(C(F)(F)F)cc2F)c1Cn1ncc(N2CC(OCC(F)(F)F)C2)cc1=O [Example 74, 2-[[5-[2-fluoro-4-(trifluoromethyl)phenyl]-3-methyl-triazol-4-yl]methyl]-5-[3-(2,2,2-trifluoro-ethoxy)azetidin-1-yl]pyridazin-3-one]",7.93,86%,1.86
"Cc1nnn(-c2ccc(Cl)cc2)c1Cn1ncc(N2CCNCC2)cc1=O [Example 14, 2-[[3-(4-chlorophenyl)-5-methyl-triazol-4-yl]methyl]-5-piperazin-1-yl-pyridazin-3-one]",7.40,72%,1.72
"Cn1nnc(-c2ccc(C(F)(F)F)cc2F)c1Cn1ncc(N2CC(Oc3ccc(Cl)nc3)C2)cc1=O [Example 93, 5-[3-[(6-chloro-3-pyridyl)oxy]azetidin-1-yl]-2-[[5-[2-fluoro-4-(trifluoromethyl)phenyl]-3-methyl-triazol-4-yl]methyl]pyridazin-3-one]",8.03,79%,1.79
"CNc1cnn(Cc2c(-c3ccc(Cl)cc3F)nnn2C)c(=O)c1 [Example 22, 2-[[5-(4-chloro-2-fluoro-phenyl)-3-methyl-triazol-4-yl]methyl]-5-(methylamino)pyridazin-3-one]",7.68,45%,1.45
"COc1ccc(-c2cnn(Cc3c(-c4ccc(Cl)cc4F)nnn3C)c(=O)c2)cc1 [Example 61, 2-((5-(4-chloro-2-fluoro-phenyl)-3-methyl-triazol-4-yl)methyl)-5-(4-methoxyphenyl)pyridazin-3-one]",8.59,52%,1.52
"COC1CN(c2cnn(Cc3c(-c4ccc(Cl)cc4F)nnn3C)c(=O)c2)C1 [Example 26, 2-[[5-(4-chloro-2-fluoro-phenyl)-3-methyl-triazol-4-yl]methyl]-5-(3-methoxyazetidin-1-yl)pyridazin-3-one]",7.89,55%,1.55
"Cn1nnc(-c2ccc(C(F)(F)F)cc2F)c1Cn1ncc(N2CC(OC(F)F)C2)cc1=O [Example 71, 5-[3-(difluoromethoxy)azetidin-1-yl]-2-[[5-[2-fluoro-4-(trifluoromethyl)phenyl]-3-methyl-triazol-4-yl]methyl]pyridazin-3-one]",7.91,75%,1.75
"CCn1nnc(-c2ccc(Cl)cc2F)c1Cn1ncc(N2CCN(C(C)C)[C@@H](C)C2)cc1=O [Example 92, 2-[[5-(4-chloro-2-fluoro-phenyl)-3-ethyl-triazol-4-yl]methyl]-5-[(3S)-4-isopropyl-3-methyl-piperazin-1-yl]pyridazin-3-one]",8.25,159%,2.59
"Cn1nnc(-c2ccc(Cl)cc2F)c1Cn1ncc(-c2cnn(CC(F)F)c2)cc1=O [Example 106, 2-((5-(4-chloro-2-fluoro-phenyl)-3-methyl-triazol-4-yl)methyl)-5-(1-(2,2-difluoro-ethyl)pyrazol-4-yl)pyridazin-3-one]",7.94,72%,1.72
"Cn1nnc(-c2ccc(C(F)(F)F)cc2F)c1Cn1ncc(N2CC(Oc3ccccn3)C2)cc1=O [Example 84, 2-[[5-[2-fluoro-4-(trifluoromethyl)phenyl]-3-methyl-triazol-4-yl]methyl]-5-[3-(2-pyridyloxy)azetidin-1-yl]pyridazin-3-one]",7.99,73%,1.73
"C[C@H]1CN(c2cnn(Cc3c(-c4ccc(Cl)cc4F)nnn3C)c(=O)c2)CCO1 [Example 45, 2-((5-(4-chloro-2-fluoro-phenyl)-3-methyl-triazol-4-yl)methyl)-5-((2S)-2-methylmorpholin-4-yl)pyridazin-3-one]",8.85,115%,2.15
"Cn1nnc(-c2ccc(C(F)(F)F)cc2F)c1Cn1ncc(N2CC(Oc3cnccn3)C2)cc1=O [Example 89, 2-[[5-[2-fluoro-4-(trifluoromethyl)phenyl]-3-methyl-triazol-4-yl]methyl]-5-(3-pyrazin-2-yloxyazetidin-1-yl)pyridazin-3-one]",8.03,76%,1.76
